According to patent US20110294778A1, “HEPATITIS C INHIBITOR COMPOUNDS” (priority 2009, published 2011):

Key:
[1] = system: HCV genotype 1a (strain H77) subgenomic replicon with NS3 resistance mutation R155K in Huh-7 cells; assay: HCV replicon RNA replication assay (NS3 protease variants), genotype 1a R155K; assay type: cell-based; conditions: Hepatitis C virus, Huh-7, 72 h, read-out: R155K 1a EC50 (nM)
[2] = system: HCV genotype 1b (Con-1) subgenomic replicon with NS3 resistance mutation D168V in Huh-7 cells; assay: HCV replicon RNA replication assay (NS3 protease variants), genotype 1b D168V; assay type: cell-based; conditions: Hepatitis C virus, Huh-7, 72 h, read-out: D168V 1b EC50 (nM)

Row | Compound | EC50 [1] | EC50 [2]
1 | COc1c(F)ccc2c(O[C@@H]3C[C@H]4C(=O)N[C@]5(C(=O)NS(=O)(=O)C6(C)CC6)C[C@H]5/C=C\CCCCC[C@H](NC(=O)N(C)C)C(=O)N4C3)cc(OC(C)C)nc12 [Compound 2002, (2R,6S,12Z,13aS,14aR,16aS)-6-[(dimethylcarbamoyl)amino]-2-{[7-fluoro-8-methoxy-2-(propan-2-yloxy)quinolin-4-yl]oxy}-N-[(1-methylcyclopropyl)sulfonyl]-5,16-dioxo-1,2,3,6,7,8,9,10,11,13a,14,15,16,16a-tetradecahydrocyclopropa[e]pyrrolo[1,2-a][1,4]diazacyclopentadecine-14a(5H)-carboxamide] | 4.7 nM | 0.41 nM
2 | CCOc1cc(O[C@@H]2C[C@H]3C(=O)N[C@]4(C(=O)NS(=O)(=O)C5(C)CC5)C[C@H]4/C=C\CCCCC[C@H](NC(=O)c4ccn(CC(F)(F)F)n4)C(=O)N3C2)c2ccc(OC)c(C)c2n1 [Compound 1029, (2R,6S,12Z,13aS,14aR,16aS)-2-[(2-ethoxy-7-methoxy-8-methylquinolin-4-yl)oxy]-N-[(1-methylcyclopropyl)sulfonyl]-5,16-dioxo-6-({[1-(2,2,2-trifluoroethyl)-1H-pyrazol-3-yl]carbonyl}amino)-1,2,3,6,7,8,9,10,11,13a,14,15,16,16a-tetradecahydrocyclopropa[e]pyrrolo[1,2-a][1,4]diazacyclopentadecine-14a(5H)-carboxamide] | 6 nM | 0.37 nM
3 | CCOc1cc(O[C@@H]2C[C@H]3C(=O)N[C@]4(C(=O)NS(=O)(=O)C5(C)CC5)C[C@H]4/C=C\CCCCC[C@H](NC(=O)N4CCC4)C(=O)N3C2)c2ccc(OC)c(C)c2n1 [Compound 2015, (2R,6S,12Z,13aS,14aR,16aS)-6-[(azetidin-1-ylcarbonyl)amino]-2-[(2-ethoxy-7-methoxy-8-methylquinolin-4-yl)oxy]-N-[(1-methylcyclopropyl)sulfonyl]-5,16-dioxo-1,2,3,6,7,8,9,10,11,13a,14,15,16,16a-tetradecahydrocyclopropa[e]pyrrolo[1,2-a][1,4]diazacyclopentadecine-14a(5H)-carboxamide] | 5.4 nM | 0.67 nM
4 | COc1ccc2c(O[C@@H]3C[C@H]4C(=O)N[C@]5(C(=O)NS(=O)(=O)C6(C)CC6)C[C@H]5/C=C\CCCCC[C@H](NC(=O)c5cc[nH]n5)C(=O)N4C3)cc(OC(C)C)nc2c1C [Compound 1009, (2R,6S,12Z,13aS,14aR,16aS)-2-{[7-methoxy-8-methyl-2-(propan-2-yloxy)quinolin-4-yl]oxy}-N-[(1-methylcyclopropyl)sulfonyl]-5,16-dioxo-6-[(1H-pyrazol-3-ylcarbonyl)amino]-1,2,3,6,7,8,9,10,11,13a,14,15,16,16a-tetradecahydrocyclopropa[e]pyrrolo[1,2-a][1,4]diazacyclopentadecine-14a(5H)-carboxamide] | 1.9 nM | 0.49 nM
5 | COc1ccc2c(O[C@@H]3C[C@H]4C(=O)N[C@]5(C(=O)NS(=O)(=O)C6CC6)C[C@H]5/C=C\CCCCC[C@H](NC(=O)c5ccn(C)n5)C(=O)N4C3)cc(OCC(F)(F)F)nc2c1C [Compound 1015, (2R,6S,12Z,13aS,14aR,16aS)-N-(cyclopropylsulfonyl)-2-{[7-methoxy-8-methyl-2-(2,2,2-trifluoroethoxy)quinolin-4-yl]oxy}-6-{[(1-methyl-1H-pyrazol-3-yl)carbonyl]amino}-5,16-dioxo-1,2,3,6,7,8,9,10,11,13a,14,15,16,16a-tetradecahydrocyclopropa[e]pyrrolo[1,2-a][1,4]diazacyclopentadecine-14a(5H)-carboxamide] | 8.2 nM | 0.57 nM
6 | COc1c(Cl)ccc2c(O[C@@H]3C[C@H]4C(=O)N[C@]5(C(=O)NS(=O)(=O)C6(C)CC6)C[C@H]5/C=C\CCCCC[C@H](NC(=O)c5cnn(C)n5)C(=O)N4C3)cc(OC(C)C)nc12 [Compound 1011, (2R,6S,12Z,13aS,14aR,16aS)-2-{[7-chloro-8-methoxy-2-(propan-2-yloxy)quinolin-4-yl]oxy}-N-[(1-methylcyclopropyl)sulfonyl]-6-{[(2-methyl-2H-1,2,3-triazol-4-yl)carbonyl]amino}-5,16-dioxo-1,2,3,6,7,8,9,10,11,13a,14,15,16,16a-tetradecahydrocyclopropa[e]pyrrolo[1,2-a][1,4]diazacyclopentadecine-14a(5H)-carboxamide] | 8.4 nM | 0.63 nM
7 | COc1ccc2c(O[C@@H]3C[C@H]4C(=O)N[C@]5(C(=O)NS(=O)(=O)C6(C)CC6)C[C@H]5/C=C\CCCCC[C@H](NC(=O)N(C)C)C(=O)N4C3)cc(OC(C)C)nc2c1C [Compound 2008, (2R,6S,12Z,13aS,14aR,16aS)-6-[(dimethylcarbamoyl)amino]-2-{[7-methoxy-8-methyl-2-(propan-2-yloxy)quinolin-4-yl]oxy}-N-[(1-methylcyclopropyl)sulfonyl]-5,16-dioxo-1,2,3,6,7,8,9,10,11,13a,14,15,16,16a-tetradecahydrocyclopropa[e]pyrrolo[1,2-a][1,4]diazacyclopentadecine-14a(5H)-carboxamide] | 6.7 nM | 1.5 nM
8 | CCOc1cc(O[C@@H]2C[C@H]3C(=O)N[C@]4(C(=O)NS(=O)(=O)C5(C)CC5)C[C@H]4/C=C\CCCCC[C@H](NC(=O)N4CC(F)C4)C(=O)N3C2)c2ccc(OC)c(C)c2n1 [Compound 2014, (2R,6S,12Z,13aS,14aR,16aS)-2-[(2-ethoxy-7-methoxy-8-methylquinolin-4-yl)oxy]-6-{[(3-fluoroazetidin-1-yl)carbonyl]amino}-N-[(1-methylcyclopropyl)sulfonyl]-5,16-dioxo-1,2,3,6,7,8,9,10,11,13a,14,15,16,16a-tetradecahydrocyclopropa[e]pyrrolo[1,2-a][1,4]diazacyclopentadecine-14a(5H)-carboxamide] | 8.4 nM | 0.53 nM
9 | COc1ccc2c(O[C@@H]3C[C@H]4C(=O)N[C@]5(C(=O)NS(=O)(=O)C6(C)CC6)C[C@H]5/C=C\CCCCC[C@H](NC(=O)c5ccn(CC(C)C)n5)C(=O)N4C3)cc(OC(C)C)nc2c1C [Compound 1020, (2R,6S,12Z,13aS,14aR,16aS)-2-{[7-methoxy-8-methyl-2-(propan-2-yloxy)quinolin-4-yl]oxy}-N-[(1-methylcyclopropyl)sulfonyl]-6-({[1-(2-methylpropyl)-1H-pyrazol-3-yl]carbonyl}amino)-5,16-dioxo-1,2,3,6,7,8,9,10,11,13a,14,15,16,16a-tetradecahydrocyclopropa[e]pyrrolo[1,2-a][1,4]diazacyclopentadecine-14a(5H)-carboxamide] | 3.1 nM | 0.23 nM
10 | COc1ccc2c(O[C@@H]3C[C@H]4C(=O)N[C@]5(C(=O)NS(=O)(=O)C6(C)CC6)C[C@H]5/C=C\CCCCC[C@H](NC(=O)c5ccc(C)s5)C(=O)N4C3)cc(OC3CC3)nc2c1C [Compound 1012, (2R,6S,12Z,13aS,14aR,16aS)-2-{[2-(cyclopropyloxy)-7-methoxy-8-methylquinolin-4-yl]oxy}-N-[(1-methylcyclopropyl)sulfonyl]-6-{[(5-methylthiophen-2-yl)carbonyl]amino}-5,16-dioxo-1,2,3,6,7,8,9,10,11,13a,14,15,16,16a-tetradecahydrocyclopropa[e]pyrrolo[1,2-a][1,4]diazacyclopentadecine-14a(5H)-carboxamide] | 5.6 nM | 0.26 nM
11 | COc1ccc2c(O[C@@H]3C[C@H]4C(=O)N[C@]5(C(=O)NS(=O)(=O)C6CC6)C[C@H]5/C=C\CCCCC[C@H](NC(=O)N5CC(F)C5)C(=O)N4C3)cc(OC(C)C)nc2c1C [Compound 2007, (2R,6S,12Z,13aS,14aR,16aS)-N-(cyclopropylsulfonyl)-6-{[(3-fluoroazetidin-1-yl)carbonyl]amino}-2-{[7-methoxy-8-methyl-2-(propan-2-yloxy)quinolin-4-yl]oxy}-5,16-dioxo-1,2,3,6,7,8,9,10,11,13a,14,15,16,16a-tetradecahydrocyclopropa[e]pyrrolo[1,2-a][1,4]diazacyclopentadecine-14a(5H)-carboxamide] | 9 nM | 0.71 nM
12 | COc1ccc2c(O[C@@H]3C[C@H]4C(=O)N[C@]5(C(=O)NS(=O)(=O)C6(C)CC6)C[C@H]5/C=C\CCCCC[C@H](NC(=O)N5CCCC5)C(=O)N4C3)cc(OC(C)C)nc2c1C [Compound 2020, (2R,6S,12Z,13aS,14aR,16aS)-2-{[7-methoxy-8-methyl-2-(propan-2-yloxy)quinolin-4-yl]oxy}-N-[(1-methylcyclopropyl)sulfonyl]-5,16-dioxo-6-[(pyrrolidin-1-ylcarbonyl)amino]-1,2,3,6,7,8,9,10,11,13a,14,15,16,16a-tetradecahydrocyclopropa[e]pyrrolo[1,2-a][1,4]diazacyclopentadecine-14a(5H)-carboxamide] | 4 nM | 1.4 nM
13 | COc1ccc2c(O[C@@H]3C[C@H]4C(=O)N[C@]5(C(=O)NS(=O)(=O)C6(C)CC6)C[C@H]5/C=C\CCCCC[C@H](NC(=O)c5ccn(C)n5)C(=O)N4C3)cc(OC3CCC3)nc2c1C [Compound 1022, (2R,6S,12Z,13aS,14aR,16aS)-2-{[2-(cyclobutyloxy)-7-methoxy-8-methylquinolin-4-yl]oxy}-N-[(1-methylcyclopropyl)sulfonyl]-6-{[(1-methyl-1H-pyrazol-3-yl)carbonyl]amino}-5,16-dioxo-1,2,3,6,7,8,9,10,11,13a,14,15,16,16a-tetradecahydrocyclopropa[e]pyrrolo[1,2-a][1,4]diazacyclopentadecine-14a(5H)-carboxamide] | 6.8 nM | 0.24 nM
14 | Cc1ccc(C(=O)N[C@H]2CCCCC/C=C\[C@@H]3C[C@@]3(C(=O)NS(=O)(=O)C3(C)CC3)NC(=O)[C@@H]3C[C@@H](Oc4cc(OC(C)C)nc5c(C)c(O)ccc45)CN3C2=O)s1 [Compound 1033, (2R,6S,12Z,13aS,14aR,16aS)-2-{[7-hydroxy-8-methyl-2-(propan-2-yloxy)quinolin-4-yl]oxy}-N-[(1-methylcyclopropyl)sulfonyl]-6-{[(5-methylthiophen-2-yl)carbonyl]amino}-5,16-dioxo-1,2,3,6,7,8,9,10,11,13a,14,15,16,16a-tetradecahydrocyclopropa[e]pyrrolo[1,2-a][1,4]diazacyclopentadecine-14a(5H)-carboxamide] | 0.77 nM | 0.58 nM
